Test results reported in patent US20130202614A1, “AUTOTAXIN PATHWAY MODULATION AND USES THEREOF” (B.S.R.C. "ALEXANDER FLEMING", priority 2010, published 2013).

Legend:
Format in all cases: cell-based, mouse
primary SFs [1] = assay: Synovial fibroblast proliferation assay ([3H]thymidine incorporation); settings: for LPA responses of wt SFs (LPA-induced proliferation): pre-treated with inhibitor prior to LPA stimulation
Method: Primary SFs were isolated from 6-8 week old mice as previously described. Briefly, mouse joint specimens were minced and digested with type IV collagenase. The released cells were grown in Dulbecco's modified Eagle's medium (DMEM) supplemented with fetal bovine serum (FBS) and penicillin-streptomycin. Isolated fibroblasts adhered on culture dishes were maintained under standard conditions (37° C. and 5% CO2) and used for the experiments between the third and fifth passages.
Cells were starved with serum-free medium before treatment due to the presence of lysophospholipids in the serum Starvation medium is supplemented with 0.2% fatty-acid-free BSA. After routine starvation, cells were stimulated with various concentrations of the tested compounds (LPA, LPC, S1P or TNF) as indicated in details below. Where indicated cells were pre-treated with the inhibitors of ERK MAPK, p38 MAPK, JNK and Rho kinase for 3 hours prior to LPA stimulation. At the moment of cell treatment, the culture medium was replaced with fresh serum-free medium containing various concentrations of the tested compounds.
Preconfluent cell cultures were starved overnight, incubated for 24 h with LPA and the rest tested compounds and finally exposed to 0.5 μCi/ml of [^3H]thymidine. Cells were then washed, harvested by trypsinization and blotted on a membrane. The radioactivity of incorporated [^3H]-thymidine was determined by liquid scintillation counting.

BDM macrophages = assay: BMDM cytokine secretion (Luminex); settings: upon LPA stimulation
primary SFs [2] = assay: SF cell migration assay (Boyden chambers); settings: LPA stimulation
Method: Modified Boyden chambers with 8-μm pores (Corning/Costar) were used where the lower surface of the membrane was coated with 10 μg/ml human fibronectin for 2 hours at 37° C. Cells were harvested with trypsin/EDTA, washed with PBS, and resuspended to 1×10^6 cells per ml. The suspension was added to the upper chamber, and the cells were allowed to migrate at 37° C., 5% CO2, for 4 hours. Non-migratory cells were removed from the upper surface of the membrane while migratory cells in the lower compartment of the chambers were washed with PBS and stained with 0.2% crystal violet in 10% ethanol for 10 min. After extensive washing in H2O, the cells were lysed and absorbance was measured at 570 nm with a SPECTRAmax photometer.

primary SFs [3] = assay: SF adhesion assay (fibronectin); settings: LPA stimulation
Method: This assay was performed on plates coated with human fibronectin. Briefly, cells were allowed to adhere to the substrate, and unbound cells were removed with sequential washes with PBS. Adhered cells were then stained with crystal violet, solubilized, and their absorbance was determined at 570 nm. The experiment was performed in triplicates.

BMD macrophages = assay: Macrophage proliferation upon LPA addition; settings: primary cultures
primary SFs [4] = assay: SF actin cytoskeleton rearrangement (phalloidin F-actin staining); settings: phaloidin-F-actin staining
Method: Cells were cultured on glass coverslips, grown in the presence of serum to subconfluence, and starved for 24 h by replacing the medium with serum-free medium containing 0.1% bovine serum albumin. Then the cells were treated with LPA and other components in serum-free medium for 4 h, fixed with 4% PFA and stained for F-actin with TRITC-conjugated phalloidin according to the manufacturer's protocol.

primary SFs [5] = assay: SF proinflammatory cytokine secretion (multiplex Luminex ELISA); settings: especially IL-6
primary SFs [6] = assay: MMP production by SFs (RT-PCR); settings: MMP-9
Method: Total RNA was extracted from subconfluent cultured SFs with the TRIzol reagent (Invitrogen Ltd, Paisley, PA4 9RF, UK Carlsbad, Calif. 92008) according to the manufacturer's instructions. RNA yield and purity were determined spectrophotometrically at 260/280 nm. cDNA synthesis was performed using the MMLV reverse transcriptase (Promega, Madison, Wis., United States Madison, Wis. 53711 USA). In all cases the normalization was performed in relation to the B2m internal control.
SQ PCR was performed by 20-27 cycles of denaturation at 95° C. for 30 s, annealing at 56-60° C. (depending on the Tm of each individual set of primers) for 30 s, and extension at 72° C. for 1 min, in a final volume of 20 μl. The products were separated by electrophoresis on 1.5% agarose gel and stained with ethidium bromide. […] Quantitative real-time PCR was performed using the iCycler Iq Real-Time detection system and the IQ SYBR Green Supermix (Bio-Rad Laboratories, Hercules, Calif., United States), according to the manufacturer's instructions, for one cycle of 95° C. for 3 min, and 42 cycles of denaturation at 95° C. for 30 s and annealing at 56-58° C. for 45 s. […]

Compound: CCCCCCCC/C=C\CCCCCCCC(=O)OC[C@@H](O)COP(=O)([O-])OCC[N+](C)(C)C [LPC, 1-oleoyl-LPC (18:1)]
- proliferation of mRA SFs (primary SFs [1]; 3H-thymidine incorporation): did stimulate the proliferation
- proliferation of wt SFs (primary SFs [1]; 3H-thymidine incorporation): no effects

Compound: C[C@@H](N)[C@H]1CC[C@H](C(=O)Nc2ccncc2)CC1 [Hybridoma Y27632]
- LPA responses of wt SFs (LPA-induced proliferation) (primary SFs [1]): inhibited

Compound: 1-oleoyl-LPA (18:1)
- cytokine secretion from BDM macrophages (BDM macrophages): No differences
- SF migration (primary SFs [2]): increased
- SF adhesion (primary SFs [3]): increased
- proliferation of macrophages (BMD macrophages): no effects
- SF actin cytoskeleton (primary SFs [4]): rearrangements of their actin cytoskeleton
- proinflammatory cytokine secretion from SFs (primary SFs [5]): stimulated proinflammatory cytokine secretion
- proliferation of wt SFs (primary SFs [1]; 3H-thymidine incorporation): stimulated the proliferation
- synergy with TNF on SF proliferation (primary SFs [1]; different concentrations of LPA and/or TNF): synergizes with TNF
- production of matrix metaloproteinases (MMPs) by SFs (primary SFs [6]): stimulated

Compound: COc1cccc(-c2cc(=O)c3ccccc3o2)c1N [PD98059]
- LPA responses of wt SFs (LPA-induced proliferation) (primary SFs [1]): inhibited

Compound: C[S+]([O-])c1ccc(-c2nc(-c3ccncc3)c(-c3ccc(F)cc3)[nH]2)cc1 (centres unmarked) [SB203580]
- LPA responses of wt SFs (LPA-induced proliferation) (primary SFs [1]): inhibited
